Measured values reported in patent US7960415B2, “Caspase inhibitors and uses thereof” (Vertex Pharmaceutical Incoporated, priority 2003, dated 2011).

Tests used:
[1] = test system: IL-1β secretion from human whole blood; assay: Inhibition of IL-1β secretion from whole blood; format: cell-based; details: human whole blood diluted 1:2, LPS 5 ng/ml, 18 hours, ELISA
Method: Human blood is freshly drawn from healthy donors and diluted 1:2 in PBS. To 500 μl of diluted blood […] of prediluted test compound in RPMI medium and […] LPS (5 ng/ml final concentration on the plate) are added (LPS, Serotype 0111:B4, Sigma L3012). After stimulation for 18 hours supernatants are collected and assayed for IL-1β levels using the appropriate ELISA kit (R&D systems).

[2] = test system: Jurkat E6.1 cells; assay: Anti-Fas induced apoptosis assay; format: cell-based; details: Homo sapiens, anti-Fas antibody CH-11 10 ng/ml, 16-18 hrs, DNA fragmentation
Description: Cellular apoptosis may be induced by the binding of Fas ligand (FasL) to its receptor, CD95 (Fas). CD95 is one of a family of related receptors, known as death receptors, which can trigger apoptosis in cells via activation of the caspase enzyme cascade. The process is initiated by the binding of the adapter molecule FADD/MORT-1 to the cytoplasmic domain of the CD-95 receptor-ligand complex. Caspase-8 then binds FADD and becomes activated, initiating a cascade of events that involve the activation of downstream caspases and subsequent cellular apoptosis. Apoptosis can also be induced in cells expressing CD95 e.g., the Jurkat E6.1 T cell lymphoma cell line, using an antibody, rather than FasL, to crosslink the cell surface CD95. Anti-Fas-induced apoptosis is also triggered via the activation of caspase-8. This provides the basis of a cell based assay to screen compounds for inhibition of the caspase-8-mediated apoptotic pathway.
Jurkat E6.1 cells are cultured in complete medium consisting of RPMI-1640 (Sigma No)+10% foetal calf serum (Gibco BRL No. 10099-141)+2 mM L-glutamine (Sigma No. G-7513). The cells are harvested in log phase of growth. 100 ml of cells at 5-8×10^5 cells/ml are transferred to sterile 50 ml Falcon centrifuge tubes and centrifuged for 5 minutes at 100×g at room temperature. The supernatant is removed and the combined cell pellets resuspended in 25 ml of complete medium. The cells are counted and the density adjusted to 2×10^6 cells/ml with complete medium.
The test compound is dissolved in dimethyl sulfoxide (DMSO)(Sigma No. D-2650) to give a 100 mM stock solution. This is diluted to 400 μM in complete medium, then serially diluted in a 96-well plate prior to addition to the cell assay plate.
100 μl of the cell suspension ([…]) is added to each well of a sterile 96-well round-bottomed cluster plate (Costar No. 3790). 50 μl of compound solution at the appropriate dilution and 50 μl of anti-Fas antibody, clone CH-11 (Upstate, Cat No. 1 544 675) at a final concentration of 10 ng/ml, are added to the wells. Control wells are set up minus antibody and minus compound but with a serial dilution of DMSO as vehicle control. The plates are incubated for 16-18 hrs at 37° C. in 5% CO2 and 95% humidity.
Apoptosis of the cells is measured by the quantitation of DNA fragmentation using a ‘Cell Death Detection Assay’ from Roche diagnostics, No. 1544 675. After incubation for 16-18 hrs the assay plates are centrifuged at 100×g at room temperature for 5 minutes. 150 μl of the supernatant are removed and replaced by 150 μl of fresh complete medium. The cells are then harvested and 200 μl of the lysis buffer supplied in the assay kit are added to each well. The cells are triturated to ensure complete lysis and incubated for 30 minutes at 4° C. The plates are then centrifuged at 1900×g for 10 minutes and the supernatants diluted 1:20 in the incubation buffer provided. 100 μl of this solution is then assayed according to the manufacturer's instructions supplied with the kit. OD405 nm is measured 20 minutes after addition of the final substrate in a SPECTRAmax Plus plate reader (Molecular Devices). OD405 nm is plotted versus compound concentration and the IC50 values for the compounds are calculated using the curve-fitting program SOFTmax Pro (Molecular Devices) using the four parameter fit option.

[3] = test system: rat cortical neurons; assay: Hypoxia-induced apoptosis of rat cortical neurons; format: cell-based, Wistar rat; details: Cortical neurone, 95% N2/5% CO2, Cell Death Detection ELISA (DNA fragmentation)
Method: Cortical neurons are dissociated from Wistar rat embryos (E17) by a modification of the procedure of Rogers et al. 1997, Brain Res. Bulletin, 44:131. Briefly, cerebral cortices are isolated aseptically from 15-20 Wistar rat embryos. A cell suspension is prepared by mincing the cerebral cortices and digesting them with papain. Cells are washed with ovomucoid enzyme inhibitor and DNaseI and plated onto Poly-D lysine coated plates in high glucose DMEM containing 10% heat-inactivated fetal calf serum, L-glutamine, penicillin and streptomycin. The yield of neurons is […] per embryo and they are 80-90% viable as assessed by Trypan blue exclusion.
The neurons are cultured in complete medium at 37° C. in a normal atmosphere for 48 hours prior to the hypoxia experiments. For hypoxia, the normal cell medium is replaced by oxygen-depleted serum-free medium. Cells are incubated in an atmosphere of 95% N2/5% CO2 for various lengths of time. Compounds are dissolved in DMSO at 100 mM then diluted in medium and added to the culture from time=0. The level of apoptosis is measured using a Cell Death Detection ELISA kit (Roche) which detects DNA fragmentation. Plates are read at 405 nm. Controls included cells cultured in aerobic conditions in serum-containing medium (+serum) and cells cultured in aerobic conditions in serum-deprived medium (−serum).

IC50 [1] | IC50 [2] | Structure (SMILES) | IC50 [3]
– | < 500 nM | CC[C@@H](C(=O)NC(CC(=O)O)C(=O)CF)n1cccc(NC(=O)c2ccccc2)c1=O (stereo partly drawn) [Compound 30, (S)-3-[2-(3-Benzoylamino-2-oxo-2H-pyridin-1-yl)-butyrylamino]-5-fluoro-4-oxo-pentanoic acid] | 1000 to 10000 nM
– | < 500 nM | CC[C@@H](C(=O)NC(CC(=O)O)C(=O)CF)n1cccc(NC(=O)c2c(Cl)cccc2Cl)c1=O (stereo partly drawn) [Compound 31, (S)-3-{2-[3-(2,6-Dichloro-benzoylamino)-2-oxo-2H-pyridin-1-yl]-butyrylamino}-5-fluoro-4-oxo-pentanoic acid] | 1000 to 10000 nM
– | < 500 nM | CC[C@@H](C(=O)NC(CC(=O)O)C(=O)CF)n1cccc(NC(=O)c2ccccn2)c1=O (stereo partly drawn) [Compound 32, (S)-5-Fluoro-4-oxo-3-(2-{2-oxo-3-[(pyridine-2-carbonyl)-amino]-2H-pyridin-1-yl}-butyrylamino)-pentanoic acid] | –
– | < 500 nM | CC[C@@H](C(=O)NC(CC(=O)O)C(=O)CF)n1cccc(NC(=O)Cc2cccc(C)c2)c1=O (stereo partly drawn) [Compound 34, (S)-5-Fluoro-4-oxo-3-{2-[2-oxo-3-(2-m-tolyl-acetylamino)-2H-pyridin-1-yl]-butyrylamino}-pentanoic acid] | 1000 to 10000 nM

The next lines start with the compound.

Structure (SMILES) | IC50 [1] | IC50 [2] | IC50 [3]
CC[C@@H](C(=O)N[C@@H](CC(=O)O)C(=O)COc1c(F)c(F)cc(F)c1F)n1cccc(NC(C)=O)c1=O [Compound 1, (S,S)-3-[2-(3-Acetylamino-2-oxo-2H-pyridin-1-yl)-butyrylamino]-4-oxo-5-(2,3,5,6-tetrafluoro-phenoxy)-pentanoic acid] | < 500 nM | < 500 nM | 1000 to 10000 nM
CCC(=O)Nc1cccn([C@@H](CC)C(=O)N[C@@H](CC(=O)O)C(=O)COc2c(F)c(F)cc(F)c2F)c1=O [Compound 2, (S,S)-4-Oxo-3-[2-(2-oxo-3-propionylamino-2H-pyridin-1-yl)-butyrylamino]-5-(2,3,5,6-tetrafluoro-phenoxy)-pentanoic acid] | < 500 nM | < 500 nM | < 1000 nM
CC[C@@H](C(=O)N[C@@H](CC(=O)O)C(=O)COc1c(F)c(F)cc(F)c1F)n1cccc(NC(=O)C2CC2)c1=O [Compound 4, (S,S)-3-{2-[3-(Cyclopropanecarbonyl-amino)-2-oxo-2H-pyridin-1-yl]-butyrylamino}-4-oxo-5-(2,3,5,6-tetrafluoro-phenoxy)-pentanoic acid] | 500 to 5000 nM | < 500 nM | 1000 to 10000 nM
CC[C@@H](C(=O)N[C@@H](CC(=O)O)C(=O)COc1c(F)c(F)cc(F)c1F)n1cccc(NC(=O)C(C)C)c1=O [Compound 5, (S,S)-3-[2-(3-Isobutyrylamino-2-oxo-2H-pyridin-1-yl)-butyrylamino]-4-oxo-5-(2,3,5,6-tetrafluoro-phenoxy)-pentanoic acid] | < 500 nM | < 500 nM | < 1000 nM
C[C@@H](C(=O)NC(CC(=O)O)C(=O)CF)n1cccc(NC(=O)Cc2ccccc2)c1=O (stereo partly drawn) [Compound 28, (S)-5-Fluoro-4-oxo-3-[2-(2-oxo-3-phenylacetylamino-2H-pyridin-1-yl)-propionylamino]-pentanoic acid] | 500 to 5000 nM | 500 to 2000 nM | –
CC[C@@H](C(=O)NC(CC(=O)O)C(=O)CF)n1cccc(NC(=O)Cc2ccccc2)c1=O (stereo partly drawn) [Compound 33, (S)-5-Fluoro-4-oxo-3-[2-(2-oxo-3-phenylacetylamino-2H-pyridin-1-yl)-butyrylamino]-pentanoic acid] | – | < 500 nM | –
CCC[C@@H](C(=O)NC(CC(=O)O)C(=O)CF)n1cccc(NC(=O)CC)c1=O (stereo partly drawn) [Compound 35, (S)-5-Fluoro-4-oxo-3-[2-(2-oxo-3-propionylamino-2H-pyridin-1-yl)-pentanoylamino]-pentanoic acid] | – | < 500 nM | 1000 to 10000 nM
CC[C@@H](C(=O)NC(CC(=O)O)C(=O)CF)n1cc(C)cc(NC(=O)Cc2ccccc2)c1=O (stereo partly drawn) [Compound 37, (S)-5-Fluoro-3-[2-(5-methyl-2-oxo-3-phenylacetylamino-2H-pyridin-1-yl)-butyrylamino]-4-oxo-pentanoic acid] | – | < 500 nM | 1000 to 10000 nM
